In patent US11673901B2, “Polycyclic compounds as allosteric SHP2 inhibitors” (Revolution Medicines, Inc., priority 2017, dated 2023):

Molecular target: SHP2 (Homo sapiens (Human), UniProt Q06124)
Assay: SHP2 allosteric inhibition assay (DiFMUP prompt fluorescence)
Format: biochemical
Conditions: 0.2 nM SHP2 activated with 0.5 μM Activating Peptide 1 or 2, substrate DiFMUP
Method in brief: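 0.2 nM SHP2 was preincubated 30-60 min at 25° C with 0.5 μM bis-phosphotyrosyl activating peptide and compound (0.00005-10 μM) in 50 mM HEPES pH 7.2, 100 mM NaCl, 0.5 mM EDTA, 0.05% P-20, 1 mM DTT. DiFMUP hydrolysis was read kinetically (ex 340/em 450 nm); IC50 came from normalized fits of initial rates.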

Chain of SHP2 (Q06124 whole entry): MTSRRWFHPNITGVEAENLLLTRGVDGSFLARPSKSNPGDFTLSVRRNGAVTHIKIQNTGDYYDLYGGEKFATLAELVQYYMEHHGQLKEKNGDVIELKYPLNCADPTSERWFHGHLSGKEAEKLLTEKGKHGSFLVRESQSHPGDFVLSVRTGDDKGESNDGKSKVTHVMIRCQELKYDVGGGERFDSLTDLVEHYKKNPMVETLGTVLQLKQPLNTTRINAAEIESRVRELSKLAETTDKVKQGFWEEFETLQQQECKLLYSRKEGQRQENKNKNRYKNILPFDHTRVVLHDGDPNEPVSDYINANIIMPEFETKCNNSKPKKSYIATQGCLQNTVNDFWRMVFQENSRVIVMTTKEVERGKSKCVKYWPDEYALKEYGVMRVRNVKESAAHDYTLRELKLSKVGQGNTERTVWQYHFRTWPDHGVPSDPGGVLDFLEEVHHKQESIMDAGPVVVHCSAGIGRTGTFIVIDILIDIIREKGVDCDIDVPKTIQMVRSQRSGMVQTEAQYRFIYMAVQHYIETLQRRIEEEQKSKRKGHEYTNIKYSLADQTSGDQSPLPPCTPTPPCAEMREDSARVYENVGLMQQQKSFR

SMILES | IC50 (Table 2, class symbols) [nM] | IC50 (Table 1) [nM]
C[C@@H]1OCC2(CCN(c3cnc(Sc4ccnc(N)c4Cl)c4nccn34)CC2)[C@@H]1N [Compound 65, (3S,4S)-8-{8-[(2-amino-3-chloropyridin-4-yl)sulfanyl]imidazo[1,2-a]pyrazin-5-yl}-3-methyl-2-oxa-8-azaspiro[4.5]decan-4-amine] | > 500 | 
Nc1nccc(Sc2cnc(N3CC(O)C3)n3ccnc23)c1Cl [Compound 75] | > 500 | 
C[C@@H]1OCC2(CCN(c3ncc(Sc4ccnc5nc[nH]c45)c4nccn34)CC2)[C@@H]1N [Compound 17, (3S,4S)-8-(8-{1H-imidazo[4,5-b]pyridin-7-ylsulfanyl}imidazo[1,2-c]pyrimidin-5-yl)-3-methyl-2-oxa-8-azaspiro[4.5]decan-4-amine] | ≤ 50 | 
Cc1nc(N2CCC3(CC2)CO[C@@H](C)[C@H]3N)n2ccnc2c1-c1ccc2[nH]ncc2c1 [Compound 39, (3S,4S)-8-[8-(2H-indazol-5-yl)-7-methylimidazo[1,2-c]pyrimidin-5-yl]-3-methyl-2-oxa-8-azaspiro[4.5]decan-4-amine] | ≤ 50 | 
Cc1nc(N2CCC3(CC2)CO[C@@H](C)[C@H]3N)n2ccnc2c1-c1ccc2[nH]cnc2c1 [Compound 33, (3S,4S)-8-[8-(1H-1,3-benzodiazol-6-yl)-7-methylimidazo[1,2-c]pyrimidin-5-yl]-3-methyl-2-oxa-8-azaspiro[4.5]decan-4-amine] | ≤ 50 | 
C[C@@H]1OCC2(CCN(c3ncc(Sc4ccnc(N5CC(O)C5)c4Cl)c4nccn34)CC2)[C@@H]1N [Compound 10, 1-[4-({5-[(3S,4S)-4-amino-3-methyl-2-oxa-8-azaspiro[4.5]decan-8-yl]imidazo[1,2-c]pyrimidin-8-yl}sulfanyl)-3-chloropyridin-2-yl]azetidin-3-ol] | ≤ 50 | 
Nc1nccc(Sc2cnc(N3C[C@@H]4[C@@H](N)[C@@H]4C3)n3ccnc23)c1Cl [Compound 25, (1R,5S,6R)-3-{8-[(2-amino-3-chloropyridin-4-yl)sulfanyl]imidazo[1,2-c]pyrimidin-5-yl}-3-azabicyclo[3.1.0]hexan-6-amine] | 50 to 500 | 
C[C@@H]1OCC2(CCN(c3ncc(Sc4ccnc(N5CC(C#N)C5)c4Cl)c4nccn34)CC2)[C@@H]1N [Compound 13, 1-[4-({5-[(3S,4S)-4-amino-3-methyl-2-oxa-8-azaspiro[4.5]decan-8-yl]imidazo[1,2-c]pyrimidin-8-yl}sulfanyl)-3-chloropyridin-2-yl]azetidine-3-carbonitrile] | ≤ 50 | 
C[C@@H]1OCC2(CCN(c3ncc(-c4cccc(Cl)c4Cl)c4nccn34)CC2)[C@@H]1N [Compound 56, (3S,4S)-8-[8-(2,3-dichlorophenyl)imidazo[1,2-c]pyrimidin-5-yl]-3-methyl-2-oxa-8-azaspiro[4.5]decan-4-amine] | ≤ 50 | 
COc1cccc(-c2cnc(N3CCC4(CC3)CO[C@@H](C)[C@H]4N)n3ccnc23)c1Cl [Compound 57, (3S,4S)-8-[8-(2-chloro-3-methoxyphenyl)imidazo[1,2-c]pyrimidin-5-yl]-3-methyl-2-oxa-8-azaspiro[4.5]decan-4-amine] | 50 to 500 | 
N[C@@H]1CCCC12CCN(c1ccc(-c3cccc(Cl)c3Cl)c3cncn13)CC2 [Compound 5, (1R)-8-[8-(2,3-dichlorophenyl)imidazo[1,5-a]pyridin-5-yl]-8-azaspiro[4.5]decan-1-amine] | > 500 | 
C[C@@H]1OCC2(CCN(c3nc4[nH]nc(-c5cccc(Cl)c5Cl)c4c4nccn34)CC2)[C@@H]1N [Compound 83, (3S,4S)-8-[12-(2,3-dichlorophenyl)-3,6,8,10,11-pentaazatricyclo[7.3.0.0^2,6]dodeca-1(12),2,4,7,9-pentaen-7-yl]-3-methyl-2-oxa-8-azaspiro[4.5]decan-4-amine] | ≤ 50 | 
C[C@@H]1OCC2(CCN(c3ncc(Sc4ccnc(N)c4Cl)c4nccn34)CC2)[C@@H]1N [Compound 1 (Example 1)] |  | 1
COc1c(C#N)ccc(-c2c(C)nc(N3CCC4(CC3)CO[C@@H](C)[C@H]4N)n3ccnc23)c1Cl [Compound 46, 4-{5-[(3S,4S)-4-amino-3-methyl-2-oxa-8-azaspiro[4.5]decan-8-yl]-7-methylimidazo[1,2-c]pyrimidin-8-yl}-3-chloro-2-methoxybenzonitrile] | ≤ 50 | 
